Measurements from patent EP0542807B1, “USE OF 2-PHENYL-1,2-BENZISOSELENAZOL-3(2H)-ONE” (RHONE-POULENC RORER GMBH, priority 1990, dated 1992).

What was measured:
LLC-PK1 cells = assay: In-vitro toxicity of cisplatin in LLC-PK1 cells (LDH-leakage, protein remaining attached to the culture plate); type: cell-based, porcine
Description: LLC-PK1 are porcine kidney cells which express many characteristics of proximal tubule epithelium. […] In this cell line the LDH-leakage can be used as criterium for cell toxicity.
Cells were seeded in 24 well culture dishes ([…]) and allowed to grow to confluence (2.4 x 10^5 cell/cm^2) over 8 days in serum containing 5 % fetal calf serum. The cells were then maintained in serum-free medium for 2 days before drug treatment. Only monolayers in which dome formation occurred were used for the experiments.
Ebselen was dissolved in 2% dimethylsulfoxide in the sterile salt solution.
After incubation, the monolayers were washed 3 times with physiological saline to remove residual drug. Subsequently, the cells were grown in medium containing 5% fetal calf serum. Cell viability was assessed at different timepoints. In control experiments, monolayers were exposed to the vehicle in stead of drugs.
In control experiments, ebselen was replaced by the vehicle.

[1] = Histology of kidneys and retroperitoneal ganglionic tissue; type: in vivo, BALB/c mice; conditions: cisplatin alone versus cisplatin and ebselen given 1 h before
Description: Histology. Mice were sacrificed four days after treatment with cisplatin alone or Ebselen and cisplatin. Control groups were treated with Ebselen alone or the vehicle. Kidneys and livers were removed and processed for light microscopy. Sections of 6 um thickness were cut and stained in hematoxylin : eosin. All slides were examined without prior knowledge of the treatment given to the animal from which the specimen under investigation was taken.

MPC 11 tumor cells = assay: Nephrotoxicity and antitumor activity in mice inoculated with MPC 11 tumor cells; type: in vivo, BALB/c mice; conditions: for T/C: T/C=MST treated/ MST control
Description: (§1) Tumors. MPC 11 tumor cells were obtained from the institute of Pathology, University of Utrecht, The Netherlands. The MPC 11 tumor originated as a plasmacytoma, and was originally obtained from Dr. D. Catty, Birmingham, United Kingdom. The tumor cells were maintained by weekly passages in BALB/c mice. Freshly harvested ascitic cells were used in the experiments. Cells were counted with a hemocytometer. Transplantable Prima mammary tumor cells were obtained from the Radiobiological Institute TNO, Rijswijk, The Netherlands. The Prima tumor originated as a mammary carcinoma, induced by forced breeding in BALB/c mice bearing murine mammary tumor virus. The Prima tumor cell-line was cultured in vitro in standard Dulbecco's modification of Minimal Essential Medium (Gibco, Paisley, United Kingdom), supplemented with L-glutamine (500 mg/l), 2-mercapto-ethanol (60 umol/l) and 10% fetal calf serum (Flow Laboratories, Zwanenburg, The Netherlands).
(§2) Laboratory Animals. Female BALB/c mice were obtained from the Central Institute for the Breeding of Laboratory Animals/Harlan Sprague-Dawley (CPB/HSD), Zeist, The Netherlands. The mice were 8 weeks of age and weighed 18-20 g at the start of the experiments. All animals were provided with standard laboratory food (SRMA chow, Hope Farms, Woerden, The Netherlands) and water ad libitum.
(§3) Treatment. Animals were divided at random into groups of 8. […] Ebselen was dissolved in f a mixture of dimethylsulfoxide/polyethyleneglycol/physiological saline (1/4/20) and administered i.p. in a volume of 0.6 ml.
Evaluation of Antitumor Activity. […] Control groups were treated with ebselen or the vehicle. Mice were examined daily for occurrence of tumors. The experiments were terminated on Day 42 and median survival times (MSTs) were calculated.
(§4) Statistics. Student's test, unpaired, was used to evaluate the significance of differences between experimental groups. The level of significance was set at P < 0.05.

Prima breast tumor cells = assay: Nephrotoxicity and antitumor activity in mice inoculated with Prima breast tumor cells; type: in vivo, BALB/c mice; conditions: for T/C Day 15: T/C = mean tumor weight treated/control mice; for Incidence of tumors Day 8: by palpation
Description: as §1, §2, §3
Control groups were treated with ebselen or the vehicle. The occurrance of tumors was examined daily by palpation. The experiments were terminated on Day 15 when the tumors were excised and weighed.
as §4

[2] = Acute toxicity (LD0) in mice; type: in vivo; conditions: acute investigations
Description: (§5) Since, in contrast to the previously known and applied selenium compounds, Ebselen is low in toxicity (LD0 > 1000 mg/kg body weight in acute investigations in mice and rats) and the maximum doses to be administered lie greatly below this value, administration to patients can be regarded as being without danger.

[3] = Acute toxicity (LD0) in rats; type: in vivo; conditions: acute investigations
Description: as §5

[4] = Cisplatin-induced nephrotoxicity in mice (kidney function: BUN, serum creatinine); type: in vivo, BALB/c mice; conditions: for Effect on cisplatin-induced increase of BUN and serum creatinine: Day 4
Description: as §2, §3
Kidney Function. […] Blood samples were obtained from the retroorbital venous plexus in the mice.
as §4

[5] = set-up: species or system BALB/c mice; conditions: mouse, in vivo
Description: Kidney Function. […] Blood samples were obtained from the retroorbital venous plexus in the mice. Serum creatinine and BUN were measured daily in pilot studies (data not shown) and in more extensive studies at the time of maximally observed toxicity : Day 4.
Liver Function. […] Control groups were treated with ebselen or the vehicle.

[6] = Cisplatin 11.5 mg/kg alone, n=8

## N.N.[Cl][Pt][Cl] [Cisplatin]
LLC-PK1 cells; cisplatin 0.4 mM for 1 h, time after termination of the incubation
  Time at which decrease in cell viability was first observed: 24 h
[1]
  Damage to retroperitoneal ganglionic cells: more pronounced
MPC 11 tumor cells; Cisplatin 4.0 mg/kg alone
  T/C: 150%
MPC 11 tumor cells; Cisplatin 4.0 mg/kg alone, n=8
  Incidence of tumors Day 7: 100%
  MST: 24 ± 4 days
MPC 11 tumor cells; Cisplatin 6.5 mg/kg alone
  T/C: 181%
MPC 11 tumor cells; Cisplatin 6.5 mg/kg alone, n=8
  Incidence of tumors Day 7: 100%
  MST: 29 ± 4 days
MPC 11 tumor cells; Cisplatin 9.0 mg/kg alone
  T/C: >300%
MPC 11 tumor cells; Cisplatin 9.0 mg/kg alone, n=8
  Incidence of tumors Day 7: 0%
  MST: >30 days
MPC 11 tumor cells; Cisplatin 11.5 mg/kg alone
  T/C: >300%
MPC 11 tumor cells; [6]
  Incidence of tumors Day 7: 0%
  MST: >48 days
MPC 11 tumor cells; Cisplatin 14.5 mg/kg alone, n=8
  Incidence of tumors Day 7: 0%
Prima breast tumor cells; Cisplatin 6.5 mg/kg alone
  T/C Day 15: 93%
  Incidence of tumors Day 8: 100%
Prima breast tumor cells; Cisplatin 6.5 mg/kg alone, n=8
  Mean tumor weight Day 15: 1.4 ± 0.2 g
Prima breast tumor cells; Cisplatin 9.0 mg/kg alone
  T/C Day 15: 47%
  Incidence of tumors Day 8: 0%
Prima breast tumor cells; Cisplatin 9.0 mg/kg alone, n=8
  Mean tumor weight Day 15: 0.7 ± 0.4 g
Prima breast tumor cells; Cisplatin 11.5 mg/kg alone
  T/C Day 15: 28%
  Incidence of tumors Day 8: 0%
Prima breast tumor cells; [6]
  Mean tumor weight Day 15: 0.42 ± 0.08 g
Prima breast tumor cells; Cisplatin 14.5 mg/kg alone
  T/C Day 15: 7%
  Incidence of tumors Day 8: 0%
Prima breast tumor cells; cisplatin 9.0 and 11.5 mg/kg
  Efficacy against the Prima mammary tumor: effective
Prima breast tumor cells; cisplatin […] alone, n=8
  Mice with tumors as assessed by palpation on Day 7: None

## O=c1c2ccccc2[se]n1-c1ccccc1 [Ebselen, 2-phenyl-1,2-benzisoselenazol-3(2H)-one]
[2]
  LD0: > 1000 mg/kg body weight
[3]
  LD0: > 1000 mg/kg body weight
LLC-PK1 cells; 10 uM Ebselen 1 h, then 0.4 mM cisplatin 1 h, whole period up till 72 h
  Cell viability versus cells not pre-exposed (time course): significantly higher
LLC-PK1 cells; pre-incubation 1 h before cisplatin, concentration-dependent
  Ebselen concentration of highest protection: 15 µM
LLC-PK1 cells; pre-incubation with Ebselen 5-15 uM for 1 h, then 0.2 or 0.4 mM cisplatin 1 h, t = 72 h
  Protection from cisplatin-induced decrease in viability: protected the cells from a decrease in viability
LLC-PK1 cells; pre-incubation with ebselen, cisplatin 0.8 mM for 1 h
  Protection from cisplatin-induced decrease in viability: could not protect the cells against the decrease in viability
[4]; Ebselen 1 h before cisplatin 11.5 to 19.0 mg/kg
  Effect on cisplatin-induced increase of BUN and serum creatinine: prevented the increase in levels of BUN and serum creatinine at all cisplatin doses tested with exception of the highest dose
[4]; cisplatin 14.5 mg/kg, ebselen i.p. 1 h before
  Ebselen dose of maximal protection against cisplatin-induced nephrotoxicity: 10.0 mg/kg
[4]; ebselen 1 h after cisplatin
  Effect on cisplatin-induced increase of BUN and serum creatinine: a protective effect against cisplatin-induced elevations of the levels of BUN and serum creatinine was also observed, but less marked
[5]
  Functional liver- or kidney-damage: did not cause functional liver- or kidney-damage
MPC 11 tumor cells; Ebselen 10.0 mg/kg alone
  T/C: 106%
MPC 11 tumor cells; Ebselen 10.0 mg/kg alone, n=8
  Incidence of tumors Day 7: 100%
  MST: 17 ± 2 days
  Survival Day 7: 100%
MPC 11 tumor cells; MPC 11 plasmacytoma, ebselen i.p. 1 h prior to cisplatin
  Influence on the antitumor activity of cisplatin: did not reduce the antitumor activity of cisplatin
MPC 11 tumor cells; ebselen alone
  MST versus vehicle control: identical to that of the control group
Prima breast tumor cells; Ebselen 10 mg/kg 1 h before cisplatin
  Influence on the antitumor activity of cisplatin: did not reduce the antitumor activity of cisplatin
Prima breast tumor cells; Ebselen 10 mg/kg alone
  Efficacy against the Prima tumor: not effective
Prima breast tumor cells; Ebselen 10.0 mg/kg alone
  T/C Day 15: 100%
  Incidence of tumors Day 8: 100%
Prima breast tumor cells; Ebselen 10.0 mg/kg alone, n=8
  Mean tumor weight Day 15: 1.5 ± 0.4 g
  Survival Day 8: 100%
